Data: patent US20070053985A1, “Coenzyme Q10-containing fine particle with excellent dispersibility” (KANEKA CORPORATION, priority 2005, published 2007)

How the values were obtained:
[1] = Dispersibility in water, mixture stirred violently; assay type: physicochemical; conditions: 5 mg added into 100 mL of water, stirring violently
Method: Oxidized coenzyme Q10 crystals (5 mg) or reduced coenzyme Q10 crystals (5 mg) as obtained in the Production Example 1 was added into 100 mL of water, and each mixture was then stirring violently. In the both mixtures, one part of fine particles adhered to the wall of vessel, and another part thereof formed lumps of particles floated on the water surface.

[2] = Adhesion of particles to the wall of a glass sample bottle on shaking; assay type: physicochemical; conditions: 500 mg in a 10-mL glass sample bottle, shaken
Method: Fine particles as obtained in Example 4 (500 mg) was placed in a 10-mL glass sample bottle, and then shaken.
Reduced coenzyme Q10 crystals as obtained in Production Example 1 (500 mg) was placed in a 10-mL glass sample bottle, and then shaken in the same manner as Example 8.

dispersibility in water [1] | Compound | adhesion to the wall of bottle [2]
the particles were not dispersed easily | COC1=C(OC)C(=O)C(C/C=C(\C)CC/C=C(\C)CC/C=C(\C)CC/C=C(\C)CC/C=C(\C)CC/C=C(\C)CC/C=C(\C)CC/C=C(\C)CC/C=C(\C)CCC=C(C)C)=C(C)C1=O [Oxidized coenzyme Q10 crystals, Oxidized coenzyme Q10] | 
the particles were not dispersed easily | COc1c(O)c(C)c(C/C=C(\C)CC/C=C(\C)CC/C=C(\C)CC/C=C(\C)CC/C=C(\C)CC/C=C(\C)CC/C=C(\C)CC/C=C(\C)CC/C=C(\C)CCC=C(C)C)c(O)c1OC [reduced coenzyme Q10 crystals, reduced coenzyme Q10] | most of the crystals were adhered to the wall
